From patent US20260035367A1 (Celgene Corporation, priority 2021, published 2026)
Read-outs that look alike come from different tables or passages of the source.

Key:
[1] = tested on: IL-2 secretion by human effector memory T cells (TEM); assay: Effector memory T cells IL-2 release assay (CD3/CD28 stimulation, HTRF IL-2 detection); assay type: cell-based; details: 24 h; for IC50: Homo sapiens, T-cell
Summary of the method: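 IL-2 released into the supernatant was quantified by HTRF after 24 h at 37 °C in 5% CO2. The cells were stimulated primary human TEM from donor buffy coats, treated with a 10-point semi-log compound series (0.1% DMSO final, triplicates).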

[2] = molecular target: T1, Recombinant human PKC-theta (His-tagged 362-706) (Homo sapiens, UniProt Q04759); assay: PKC-theta inhibition assay (HTRF KinEASE kit); assay type: biochemical; details: ATP 6.5 μM, STK substrate 525 nM
T1 construct: Recombinant human PKC-theta (His-tagged 362-706); His
T1 sequence (Q04759 362-706): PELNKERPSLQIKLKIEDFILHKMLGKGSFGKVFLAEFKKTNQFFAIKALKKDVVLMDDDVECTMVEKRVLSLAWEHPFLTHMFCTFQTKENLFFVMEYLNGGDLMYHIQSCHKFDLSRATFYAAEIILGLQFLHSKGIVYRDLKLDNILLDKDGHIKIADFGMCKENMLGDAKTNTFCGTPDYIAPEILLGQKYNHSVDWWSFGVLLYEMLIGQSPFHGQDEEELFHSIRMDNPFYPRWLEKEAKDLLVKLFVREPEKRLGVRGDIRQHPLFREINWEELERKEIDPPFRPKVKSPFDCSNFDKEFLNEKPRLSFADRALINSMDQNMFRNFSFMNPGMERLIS
Summary of the method: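 IC50 values were from 4-parameter logistic fits of percent inhibition, based on acceptor/donor HTRF ratios over 10 semi-log compound doses. Kinase reactions, started with substrate plus ATP, ran 30 min at 25 °C in buffer supplemented with 10 mM MgCl2, 1 mM DTT and 0.1% Tween 20; detection lasted 2 h.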

[3] = molecular target: T2, Recombinant human PKC-delta (His-tagged 345-676) (Homo sapiens, UniProt Q05655); assay: PKC-delta inhibition assay (HTRF KinEASE kit); assay type: biochemical; details: ratio, PKC-theta vs PKC-delta HTRF; for PKC-theta/PKC-delta selectivity (binned): binned A to G
T2 construct: PKC-delta (His-tagged 345-676); His
T2 sequence (Q05655 345-676): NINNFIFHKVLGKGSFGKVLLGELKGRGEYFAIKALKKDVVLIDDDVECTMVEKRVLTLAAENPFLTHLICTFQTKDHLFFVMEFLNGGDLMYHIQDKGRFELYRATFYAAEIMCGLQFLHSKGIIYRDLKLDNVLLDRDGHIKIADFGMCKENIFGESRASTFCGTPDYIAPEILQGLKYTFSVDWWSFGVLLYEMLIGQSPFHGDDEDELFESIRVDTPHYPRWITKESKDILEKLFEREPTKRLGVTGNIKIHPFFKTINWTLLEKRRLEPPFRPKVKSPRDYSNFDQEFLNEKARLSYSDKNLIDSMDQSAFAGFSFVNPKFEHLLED

[4] = binned A to G, read-out: PKC-theta IL2 pIC50 (binned) (converted)
[5] = read-out: PKC-theta IL2 pIC50 (converted)
[6] = binned A to H, read-out: PKC-theta HTRF pIC50 (binned) (converted)
[7] = read-out: PKC-theta HTRF pIC50 (converted)

Structure (SMILES) | IC50 [1, 4] | IC50 [1, 5] | IC50 [2, 6] | IC50 [2, 7] | PKC-theta/PKC-delta selectivity [3] | PKC-theta/PKC-delta selectivity (binned) [3] | PKC-theta IL2 pIC50 (binned) ([1]; binned A to G)
C[C@@H]1CNCCN1c1cc(C(F)(F)F)cc(-c2ccnc3c2C(C)(C)C(=O)N3)n1 [Example 102] | 10 to 31.6 nM | 20 nM | 1 to 3.16 nM | 1.58 nM | 14 | D (a ratio of between 10 and 20) | 
O=C1Nc2nccc(-c3cc(C(F)(F)F)cc(N4CCNCC4)n3)c2C12CCCC2 [Example 103] | 100 to 316 nM | 100 nM | 10 to 31.6 nM | 15.8 nM | 6 | E (a ratio of between 5 and 10) | 
C[C@@H]1CN(c2ccc(Cl)c(-c3ccnc4c3[C@](C)(O)C(=O)N4)c2)CCN1 [Example 106] | > 1000 nM | 10000 nM | 316 to 1000 nM | 1000 nM | 10 | D (a ratio of between 10 and 20) | 
C[C@H]1CN(c2ccc(Cl)c(-c3ccnc4c3[C@](C)(O)C(=O)N4)c2)CCN1 [Example 107] | 316 to 1000 nM | 501 nM | 31.6 to 100 nM | 63.1 nM | 7 | E (a ratio of between 5 and 10) | 
CCC1(O)C(=O)Nc2nccc(-c3cc(C(F)(F)F)cc(N4CCN[C@@H](C)C4)n3)c21 (stereo partly drawn) [Example 111] | 100 to 316 nM | 126 nM | 3.16 to 10 nM | 5.01 nM | 17 | D (a ratio of between 10 and 20) | 
COC1(C)C(=O)Nc2nccc(-c3cc(C(F)(F)F)cc(N4CCN[C@@H](C)C4)n3)c21 (stereo partly drawn) [Example 112] | 100 to 316 nM | 251 nM | 10 to 31.6 nM | 15.8 nM | 20 | C (a ratio of between 20 and 30) | 
CCC1(O)C(=O)Nc2nccc(-c3cc(Cl)cc(N4CCN[C@@H](C)C4)n3)c21 (stereo partly drawn) [Example 113] | 31.6 to 100 nM | 79.4 nM | 1 to 3.16 nM | 3.16 nM | 22 | C (a ratio of between 20 and 30) | 
CCC1(C)C(=O)Nc2nccc(-c3cc(C(F)(F)F)cc(N4CCN[C@@H](C)C4)n3)c21 (stereo partly drawn) [Example 114] | 31.6 to 100 nM | 63.1 nM | 3.16 to 10 nM | 5.01 nM | 13 | D (a ratio of between 10 and 20) | 
COC1(C)C(=O)Nc2nccc(-c3cc(Cl)cc(N4CCN[C@@H](C)C4)n3)c21 (stereo partly drawn) [Example 115] | 100 to 316 nM | 158 nM | 3.16 to 10 nM | 10 nM | 12 | D (a ratio of between 10 and 20) | 
C[C@@H](O)[C@H]1CN(c2cc(C(F)(F)F)cc(-c3ccnc4c3C(C)(C)C(=O)N4)n2)CCN1 [Example 116] | 100 to 316 nM | 126 nM | 3.16 to 10 nM | 5.01 nM | 10 | D (a ratio of between 10 and 20) | 
C[C@@H]1CN(c2cc(C(F)(F)F)cc(-c3ccnc4c3C(C)(C)C(=O)N4)n2)[C@@H](C)CN1 [Example 117] | 100 to 316 nM | 200 nM | 10 to 31.6 nM | 12.6 nM | 10 | D (a ratio of between 10 and 20) | 
COC[C@@H]1CN(c2cc(C(F)(F)F)cc(-c3ccnc4c3C(C)(C)C(=O)N4)n2)CCN1 [Example 120] | 316 to 1000 nM | 501 nM | 10 to 31.6 nM | 25.1 nM | 15 | D (a ratio of between 10 and 20) | 
C[C@H](O)[C@@H]1CN(c2cc(C(F)(F)F)cc(-c3ccnc4c3C(C)(C)C(=O)N4)n2)CCN1 [Example 121] | 316 to 1000 nM | 631 nM | 10 to 31.6 nM | 25.1 nM | 12 | D (a ratio of between 10 and 20) | 
CC1(C)C(=O)Nc2nccc(-c3cc(C(F)(F)F)cc(N4CCNC(C(C)(C)O)C4)n3)c21 (stereo not drawn) [Example 124] | 100 to 316 nM | 158 nM | 3.16 to 10 nM | 3.98 nM | 16 | D (a ratio of between 10 and 20) | 
C[C@@]1(O)C(=O)Nc2nccc(-c3cc(C(F)(F)F)cc(N4CCNC(CC(F)(F)F)C4)n3)c21 (stereo partly drawn) [Example 125] | 316 to 1000 nM | 398 nM | 10 to 31.6 nM | 15.8 nM | 13 | D (a ratio of between 10 and 20) | 
C[C@@H]1NCCN(c2cc(C(F)(F)F)cc(-c3ccnc4c3[C@](C)(O)C(=O)N4)n2)[C@@H]1C [Example 126] | 10 to 31.6 nM | 25.1 nM | 1 to 3.16 nM | 1.26 nM | 12 | D (a ratio of between 10 and 20) | 
C[C@H]1NCCN(c2cc(C(F)(F)F)cc(-c3ccnc4c3C(C)(C)C(=O)N4)n2)[C@H]1C [Example 127] |  | 25.1 nM | 1 to 3.16 nM | 1.26 nM | 15 | D (a ratio of between 10 and 20) | C (a measured pIC50 of between 7.5 and 8.0)
CC[C@H]1CN(c2cc(Cl)cc(-c3ccnc4c3C(C)(OC)C(=O)N4)n2)CCN1 (stereo partly drawn) [Example 130] | 100 to 316 nM | 158 nM | 3.16 to 10 nM | 7.94 nM | 8 | E (a ratio of between 5 and 10) | 
CCC1(O)C(=O)Nc2nccc(-c3cc(C(F)(F)F)cc(N4CCNC[C@H]4C)n3)c21 (stereo partly drawn) [Example 131] | 31.6 to 100 nM | 39.8 nM | 3.16 to 10 nM | 3.98 nM | 6 | E (a ratio of between 5 and 10) | 
CC[C@H]1CN(c2ccc(Cl)c(-c3ccnc4c3C(O)(CC)C(=O)N4)n2)CCN1 (stereo partly drawn) [Example 132] | 316 to 1000 nM | 1000 nM | 100 to 316 nM | 100 nM | 4 | F (a ratio of between 1 and 5) | 
CC1(C)C(=O)Nc2nccc(-c3cc(C(F)(F)F)cc(N4C[C@H]5CC[C@@H](C4)N5)n3)c21 [Example 135] | 100 to 316 nM | 316 nM | 10 to 31.6 nM | 20 nM | 13 | D (a ratio of between 10 and 20) | 
CC1(C)C(=O)Nc2nccc(-c3cc(C(F)(F)F)cc(N4CC5CCC4CN5)n3)c21 (stereo not drawn) [Example 137] | 100 to 316 nM | 251 nM | 10 to 31.6 nM | 12.6 nM | 16 | D (a ratio of between 10 and 20) | 
C[C@@H]1CNCCN1c1cc(Cl)cc(-c2ccnc3c2C(C)(C)C(=O)N3)n1 [Example 140] | 10 to 31.6 nM | 12.6 nM | 1 to 3.16 nM | 1.58 nM | 6 | E (a ratio of between 5 and 10) | 
